# Tested on: rats
# Assay: 4-hour single-inhalation exposure test (OECD Guideline No. 436)
# Format: in vivo
# Experimental: A 4-hour single-inhalation exposure test was performed on rats by using a mist of HCFO-1223xd according to the OECD Guideline No. 436.
structure (smiles),measurement,setting,value
"FC(F)(F)C(Cl)=CCl [HCFO-1223xd, 1,2-dichloro-3,3,3-trifluoropropene]",death of rats on inhalation exposure,"4-hour single inhalation, mist at a concentration of 5 mg/L",No death of the rats was observed
same,acute toxicity,"4-hour single-inhalation exposure, OECD Guideline No. 436",low acute toxicity

# — patent US11981883B2, “Composition containing 1,2-dichloro-3,3,3-trifluoropropene” (DAIKIN INDUSTRIES, LTD., priority 2018, dated 2024)
